Source: PubChem BioAssay AID1259407 (Chemical Carcinogenesis Research Information System (CCRIS), 2018)
Activity calls are given as the source filed them. The rule behind the calls is not given here.

System: CCRIS mutagenicity, Ames/micronucleus/aberration tests
Experiment: CCRIS mutagenicity studies
[1] = Test System: AMES SALMONELLA TYPHIMURIUM, Strain/Indicator: TA98, Metabolic Activation: NONE, Method: STANDARD PLATE
[2] = Test System: AMES SALMONELLA TYPHIMURIUM, Strain/Indicator: TA98, Metabolic Activation: RAT, LIVER, S-9, AROCLOR 1254, Method: STANDARD PLATE
[3] = Test System: AMES SALMONELLA TYPHIMURIUM, Strain/Indicator: TA100, Metabolic Activation: NONE, Method: STANDARD PLATE
[4] = Test System: AMES SALMONELLA TYPHIMURIUM, Strain/Indicator: TA100, Metabolic Activation: RAT, LIVER, S-9, AROCLOR 1254, Method: STANDARD PLATE
[5] = Test System: AMES SALMONELLA TYPHIMURIUM, Strain/Indicator: TA1535, Metabolic Activation: NONE, Method: STANDARD PLATE
[6] = Test System: AMES SALMONELLA TYPHIMURIUM, Strain/Indicator: TA1535, Metabolic Activation: RAT, LIVER, S-9, AROCLOR 1254, Method: STANDARD PLATE
[7] = Test System: AMES SALMONELLA TYPHIMURIUM, Strain/Indicator: TA1537, Metabolic Activation: NONE, Method: STANDARD PLATE
[8] = Test System: AMES SALMONELLA TYPHIMURIUM, Strain/Indicator: TA1537, Metabolic Activation: RAT, LIVER, S-9, AROCLOR 1254, Method: STANDARD PLATE
[9] = Test System: AMES SALMONELLA TYPHIMURIUM, Strain/Indicator: TA1538, Metabolic Activation: NONE, Method: STANDARD PLATE
[10] = Test System: AMES SALMONELLA TYPHIMURIUM, Strain/Indicator: TA1538, Metabolic Activation: RAT, LIVER, S-9, AROCLOR 1254, Method: STANDARD PLATE

In the case of `O=C1c2ccccc2CCc2ccccc21`, the mutagenic call (Test System: AMES SALMONELLA TYPHIMURIUM, Strain/Indicator: TA98, Metabolic Activation: HAMSTER, LIVER, S-9, AROCLOR 1254, Method: STANDARD PLATE) is reported as “inactive; negative”, the mutagenic call [1] is reported as “inactive; negative” and the mutagenic call [2] is reported as “inactive; negative”. The mutagenic call (Test System: AMES SALMONELLA TYPHIMURIUM, Strain/Indicator: TA100, Metabolic Activation: HAMSTER, LIVER, S-9, AROCLOR 1254, Method: STANDARD PLATE) was “inactive; negative”, the mutagenic call [3] was “inactive; negative” and the mutagenic call [4] was “inactive; negative”. The mutagenic call (Test System: AMES SALMONELLA TYPHIMURIUM, Strain/Indicator: TA1535, Metabolic Activation: HAMSTER, LIVER, S-9, AROCLOR 1254, Method: STANDARD PLATE) was “inactive; negative”, the mutagenic call [5] was “inactive; negative” and the mutagenic call [6] was “inactive; negative”. For the same molecule, the mutagenic call (Test System: AMES SALMONELLA TYPHIMURIUM, Strain/Indicator: TA1537, Metabolic Activation: HAMSTER, LIVER, S-9, AROCLOR 1254, Method: STANDARD PLATE) was “inactive; negative”, the mutagenic call [7] was “inactive; negative” and the mutagenic call [8] was “inactive; negative”. The mutagenic call (Test System: AMES SALMONELLA TYPHIMURIUM, Strain/Indicator: TA1538, Metabolic Activation: HAMSTER, LIVER, S-9, AROCLOR 1254, Method: STANDARD PLATE) was “inactive; negative”, the mutagenic call [9] was “inactive; negative” and the mutagenic call [10] was “inactive; negative”. The mutagenic call (Test System: MOUSE LYMPHOMA, Strain/Indicator: L5178Y (TK+/TK-), Metabolic Activation: NONE, Method: SUSPENSION/PLATE) was “inactive; negative. reevaluation of results: negative” and the mutagenic call (Test System: MOUSE LYMPHOMA, Strain/Indicator: L5178Y (TK+/TK-), Metabolic Activation: RAT, LIVER, S-9, AROCLOR 1254, Method: SUSPENSION/PLATE) was “inactive; negative. reevaluation of results: negative”.
With `c1ccc2c(c1)Cc1c-2ccc2ccc3ccccc3c12` the mutagenic call [4] was “active; positive”.
With `O=CN(O)c1ccc([N+](=O)[O-])cc1` the mutagenic call (Test System: AMES SALMONELLA TYPHIMURIUM, Strain/Indicator: TA98(NR), Metabolic Activation: NONE, Method: STANDARD PLATE) was “active; positive”, the mutagenic call (Test System: AMES SALMONELLA TYPHIMURIUM, Strain/Indicator: TA98(NR), Metabolic Activation: RAT, LIVER, S-9, AROCLOR 1254, Method: STANDARD PLATE) was “active; positive” and the mutagenic call [1] was “active; positive”. The mutagenic call [2] was “active; positive”, the mutagenic call (Test System: AMES SALMONELLA TYPHIMURIUM, Strain/Indicator: TA1538(NR), Metabolic Activation: NONE, Method: STANDARD PLATE) was “active; positive” and the mutagenic call (Test System: AMES SALMONELLA TYPHIMURIUM, Strain/Indicator: TA1538(NR), Metabolic Activation: RAT, LIVER, S-9, AROCLOR 1254, Method: STANDARD PLATE) was “active; positive”. The mutagenic call [9] was “active; positive” and the mutagenic call [10] was “active; positive”.
In the case of `CC(=O)OCCO`, the mutagenic call [1] is reported as “inactive; negative”, the mutagenic call (Test System: AMES SALMONELLA TYPHIMURIUM, Strain/Indicator: TA98, Metabolic Activation: RAT, LIVER, MICROSOMES, Method: STANDARD PLATE) is reported as “inactive; negative” and the mutagenic call [3] is reported as “inactive; negative”. For the same molecule, the mutagenic call (Test System: AMES SALMONELLA TYPHIMURIUM, Strain/Indicator: TA100, Metabolic Activation: RAT, LIVER, MICROSOMES, Method: STANDARD PLATE) was “inactive; negative”.
In the case of `O=C1C=C2c3ccccc3-c3cccc(c32)C1=O`, the mutagenic call (Test System: AMES SALMONELLA TYPHIMURIUM, Strain/Indicator: TM677, Metabolic Activation: NONE, Method: PREINCUBATION) is reported as “active; positive” and the mutagenic call (Test System: AMES SALMONELLA TYPHIMURIUM, Strain/Indicator: TM677, Metabolic Activation: RAT, LIVER, POSTMITOCHONDRIAL SUPERNATANT, AROCLOR 1254, Method: PREINCUBATION) is reported as “active; positive”.
`C[C@H]1[C@H](C)CC[C@]2(C(=O)O[C@@H]3O[C@H](CO[C@@H]4O[C@H](CO)[C@@H](O[C@@H]5O[C@@H](C)[C@H](O)[C@@H](O)[C@H]5O)[C@H](O)[C@H]4O)[C@@H](O)[C@H](O)[C@H]3O)CC[C@]3(C)C(=CC[C@@H]4[C@@]5(C)C[C@@H](O)[C@H](O)[C@@](C)(CO)[C@@H]5CC[C@]43C)[C@H]12` was tested, and the mutagenic call (End Point: IN VITRO CHROMOSOMAL ABERRATIONS, Test System: CHL CELLS, Metabolic Activation: NONE) was “inactive; negative”, the mutagenic call (End Point: IN VITRO CHROMOSOMAL ABERRATIONS, Test System: CHL CELLS, Metabolic Activation: RAT, LIVER, S-9, AROCLOR 1254) was “inactive; negative” and the mutagenic call (End Point: IN VIVO MICRONUCLEUS, Test System: BONE MARROW, Species: MOUSE, Strain/Sex: ICR, Route: GAVAGE) was “inactive; negative”. The mutagenic call [1] was “inactive; negative”, the mutagenic call [2] was “inactive; negative” and the mutagenic call [3] was “inactive; negative”. For the same molecule, the mutagenic call [4] was “inactive; negative”, the mutagenic call [5] was “inactive; negative” and the mutagenic call [6] was “inactive; negative”. The mutagenic call [7] was “inactive; negative”, the mutagenic call [8] was “inactive; negative” and the mutagenic call (Test System: E. COLI, Strain/Indicator: WP2UVRA, Metabolic Activation: RAT, LIVER, S-9, AROCLOR 1254, Method: STANDARD PLATE) was “inactive; negative”. For the same molecule, the mutagenic call (Test System: E.COLI, Strain/Indicator: WP2UVRA, Metabolic Activation: NONE, Method: STANDARD PLATE) was “inactive; negative”.
In the case of `Cc1c2ccccc2c(CBr)c2c1ccc1ccccc12`, the mutagenic call [1] is reported as “active; positive” and the mutagenic call [3] is reported as “active; positive”.
In the case of `COC(=O)/C(C#N)=C/c1ccccc1Br`, the mutagenic call [5] is reported as “inactive; negative” and the mutagenic call [6] is reported as “inactive; negative”.
